The term IC50 denotes the point on the concentration scale where inhibition reaches its midpoint.

One assay deals with T1, human V1a receptor (Homo sapiens, UniProt P37288).
T1 construct: host or cells: CHO cells
Description: Human vasopressin V1a receptor binding assay. To be noted: hV1a cell line (CHO), competition with 1 nM 3H-AVP, 45 minutes at 37° C.; read-out: V1a BINDING AFFINITY (IC50 (nM)). The protocol:
Human Vasopression V1a Receptor Binding Assay.
A cell line expressing the human V1a receptor in CHO cells (henceforth referred to as the hV1a cell line) was obtained from Dr. Michael Brownstein, NIMH, Bethesda, Md., USA. The hV1a cDNA sequence is described by Thibonnier et al., Journal of Biological Chemistry, 269, 3304-3310 (1994), and the expression method was the same as described by Morel et al. (1992). The hV1a cell line was grown in alpha-MEM with 10% fetal bovine serum and 250 ug/ml G418 (Gibco, Grand Island, N.Y., USA). For competitive binding assay, hV1a cells were plated into 6-well culture plate at 1:10 dilution from a confluency flask, and maintained in culture for at least two days. Culture medium was then removed, cells were washed with 2 ml binding buffer (25 mM Hepes, 0.25% BSA, 1×DMEM, PH=7.0). To each well, 990 μl binding buffer containing 1 nM 3H-AVP was added, and followed by 10 μl series diluted Example compounds dissolved in DMSO. […] 100 nM cold AVP (Sigma) was used to assess non-specific binding. Cells were incubated for 45 minutes at 37° C., assay mixture was removed and each well was washed three times with PBS (pH=7.4). 1 ml 2% SDS was added per well and plates were let sit for 30 minutes. The whole content in a well was transferred to a scintillation vial. Each well was rinsed with 0.5 ml PBS which was then added to the corresponding vial. Scintillation fluid (Ecoscint, National Diagnostics, Atlanta, Ga.) was then added at 3 ml per vial. Samples were counted in a liquid scintillation counter (Beckman LS3801). IC50 values were calculated by Prism Curve fitting software.
All of the alkanedioic esters and amides exemplified in the foregoing examples were tested in this assay described of Example 201.

In the next assay the target is T2, vasopressin V1a receptor (Homo sapiens, UniProt P37288).
T2 construct: host or cells: CHO cells
Description: Inhibition of phosphatidylinositol turnover. To be noted: hV1a cells, [3H]inositol phosphates, versus 10 nM AVP. In kind it is cell-based. The source says:
Inhibition of Phosphatidylinositol Turnover.
The physiological effects of vasopressin are mediated through specific G-protein coupled receptors. The vasopressin V1a receptor is coupled to the Gq/G11 family of G proteins and mediates phosphatidylinositol turnover. The agonist or antagonist character of the compounds of the invention may be determined by their ability to inhibit vasopressin-mediated turnover of phosphatidylinositol by the procedure described in the following paragraphs.
Three days prior to the assay, near-confluent cultures of hV1a cells were dissociated and seeded in 6-well tissue culture plates, about 100 wells being seeded from each 75 cm^2 flask (equivalent to 12:1 split ratio). Each well contained 1 mL of growth medium with 2 μCi of [^3H]myo-inositol (American Radiolabeled Chemicals, St. Louis, Mo., USA).
All assays were in triplicate except for basal and 10 nM AVP (both n=6). AVP ((arginine vasopressin), Peninsula Labs, Belmont, Calif., USA (#8103)) was dissolved in 0.1N acetic acid. Test agents were dissolved in DMSO and diluted in DMSO to 200 times the final test concentration. […] The order of incubations was randomized. Incubations were initiated by removing the prelabeling medium, washing the monolayer once with 1 mL of 0.9% NaCl, and transferring the contents of the assay tubes to corresponding wells. The plates were incubated for 1 hour at 37° C. Incubations were terminated by removing the incubation medium and adding 500 μL of ice cold 0.5% (w/v) trichloroacetic acid and allowing the wells to stand for 15 min.
BioRad Poly-Prep Econo-Columns were packed with 0.3 mL of AG 1 X-8 100-200 formate form resin. Resin was mixed 1:1 with water and 0.6 mL added to each column. Columns were then washed with 10 mL water. Scintillation vials (20 mL) were placed under each column. For each well, the contents were transferred to a minicolumn, after which the well was washed with 0.5 mL distilled water, which was also added to the minicolumn. The columns were then washed twice with 5 mL of 5 mM myo-inositol to elute free inositol. Aliquots (1 mL) were transferred to 20 mL scintillation vials and 10 mL of Beckman Ready Protein Plus added. After the myo-inositol wash was complete, empty scintillation vials were placed under the columns, and [^3H]inositol phosphates were eluted with three additions of 1 mL 0.5 M ammonium formate containing 0.1 N formic acid. Elution conditions were optimized to recover inositol mono-, bis-, and trisphosphates, without eluting the more metabolically inert tetrakis-, pentakis-, and hexakis-phosphates. […] Inositol lipids were measured by adding 1 mL of 2% sodium dodecyl sulfate (SDS) to each well, allowing the wells to stand for at least 30 min., and transferring the solution to 20 mL scintillation vials, to which 10 mL Beckman Ready Protein Plus scintillation fluid was then added. Samples were counted in a Beckman LS 3801 liquid scintillation counter for 10 min. Total inositol incorporation for each well was calculated as the sum of free inositol, inositol phosphates, and inositol lipids.
Concentration-response curves for AVP and concentration-inhibition curves for test agents versus 10 nM AVP were analyzed by nonlinear least-squares curve-fitting to a 4-parameter logistic function. […] The curve-fitting was weighted under the assumption that the standard deviation was proportional to dpm of radioactivity. […] Inositol phosphates were expressed as dpm per 10^6 dpm of total inositol incorporation. […]

T1 sequence (P37288 whole entry): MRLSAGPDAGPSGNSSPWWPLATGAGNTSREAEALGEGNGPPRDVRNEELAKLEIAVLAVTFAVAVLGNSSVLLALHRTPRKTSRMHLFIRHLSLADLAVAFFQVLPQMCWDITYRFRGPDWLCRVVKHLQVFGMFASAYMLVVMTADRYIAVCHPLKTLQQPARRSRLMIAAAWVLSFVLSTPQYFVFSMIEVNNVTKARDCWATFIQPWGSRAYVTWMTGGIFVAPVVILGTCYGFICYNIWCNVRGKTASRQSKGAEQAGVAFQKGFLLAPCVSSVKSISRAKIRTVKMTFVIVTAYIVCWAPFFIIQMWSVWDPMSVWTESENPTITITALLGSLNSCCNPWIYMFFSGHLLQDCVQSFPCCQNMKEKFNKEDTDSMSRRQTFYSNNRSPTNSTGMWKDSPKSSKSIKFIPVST
T2 sequence (P37288 whole entry): as above

`O=C(NCc1cccc(C(F)(F)F)c1)[C@H](CCC(=O)N1CCN(CCc2ccccc2)CC1)N1C(=O)[C@@H](N2C(=O)OC[C@@H]2c2ccccc2)[C@H]1C=Cc1ccccc1` (single isomer, unassigned) [Example 35]: the IC50 at human V1a receptor was found to be 1.9 nM. Moreover, the “agonist or antagonist character by inhibition of vasopressin-mediated turnover of phosphatidylinositol” value on vasopressin V1a receptor is given as “vasopressin V1a antagonists”.

As to `O=C(NCc1cccc(C(F)(F)F)c1)C(CCC(=O)N1CCC(N2CCCCC2)CC1)N1C(=O)C(N2C(=O)OCC2c2ccccc2)C1C=Cc1ccccc1` (single isomer, unassigned) [Example 88], the “agonist or antagonist character by inhibition of vasopressin-mediated turnover of phosphatidylinositol” value at vasopressin V1a receptor is reported as “vasopressin V1a antagonists”.

Regarding `O=C(NCc1cccc(C(F)(F)F)c1)C(CCC(=O)N1CCN(C2CCCCC2)CC1)N1C(=O)C(N2C(=O)OCC2c2ccccc2)C1C=Cc1ccccc1` (single isomer, unassigned) [Example 110], the IC50 on human V1a receptor was found to be 0.49 nM. In addition, at vasopressin V1a receptor, the “agonist or antagonist character by inhibition of vasopressin-mediated turnover of phosphatidylinositol” value was “vasopressin V1a antagonists”.

`O=C(NCc1cccc(C(F)(F)F)c1)[C@H](CC(=O)N1CCC(N2CCCCC2)CC1)N1C(=O)[C@@H](N2C(=O)OC[C@@H]2c2ccccc2)[C@H]1/C=C/c1ccccc1` [Example 44]: the IC50 on human V1a receptor is 3.1 nM. For the same compound, the “agonist or antagonist character by inhibition of vasopressin-mediated turnover of phosphatidylinositol” value on vasopressin V1a receptor is recorded as “vasopressin V1a antagonists”.

As to `O=C(NCc1cccc(C(F)(F)F)c1)[C@@H](CC(=O)N1CCC(N2CCCCC2)CC1)N1C(=O)[C@@H](N2C(=O)OC[C@@H]2c2ccccc2)[C@H]1/C=C/c1ccccc1` [Example 133], the IC50 at human V1a receptor was 2.43 nM. Moreover, at vasopressin V1a receptor, the “agonist or antagonist character by inhibition of vasopressin-mediated turnover of phosphatidylinositol” value is “vasopressin V1a antagonists”.

On to `CCCCN1CCN(C(=O)CC[C@H](C(=O)NCc2cccc(C(F)(F)F)c2)N2C(=O)[C@@H](N3C(=O)OC[C@@H]3c3ccccc3)[C@H]2/C=C/c2ccccc2)CC1` [Example 137], for which the IC50 on human V1a receptor was 17 nM.

With `CC(C)N1CCN(C(=O)CC[C@H](C(=O)NCc2cccc(C(F)(F)F)c2)N2C(=O)[C@@H](N3C(=O)OC[C@@H]3c3ccccc3)[C@H]2/C=C/c2ccccc2)CC1` [Example 138], the IC50 at human V1a receptor worked out at 21 nM.

Take `O=C(NCc1cccc(C(F)(F)F)c1)[C@@H](CCC(=O)N1CCN(C2CCCCC2)CC1)N1C(=O)[C@@H](N2C(=O)OC[C@@H]2c2ccccc2)[C@H]1/C=C/c1ccccc1` [Example 139]: the IC50 at human V1a receptor was determined as 9.5 nM.
